Measurements taken from ChEMBL document CHEMBL5375955, “Discovery of New Fusobacterium nucleatum Inhibitors to Attenuate Migratory Capability of Colon Cancer Cells by the Drug Repositioning Strategy” (J Med Chem, 2023).
Values after ≈ are worked out from the molar mass of the structure shown. Active and inactive are the calls of the source. The rule behind the calls is not given here.

Tests used:
Fusobacterium nucleatum [1] = assay: Antibacterial activity against Fusobacterium nucleatum ATCC 23726 assessed as bacterial growth inhibition incubated for 48 hrs by broth dilution susceptibility test; type: functional
Shigella flexneri = assay: Antibacterial activity against Shigella flexneri ATCC 12022 assessed as bacterial growth inhibition incubated for 48 hrs by broth dilution susceptibility test; type: functional
[2] = Cytotoxicity against HUVEC cells assessed as inhibition of cell growth incubated for 48 hrs by CCK-8 assay; type: toxicity, cell-based; settings: human
[3] = test system: Peptostreptococcus anaerobius; assay: Antibacterial activity against Peptostreptococcus anaerobius ATCC 27337 assessed as bacterial growth inhibition incubated for 48 hrs by broth dilution susceptibility test; type: functional
MC-38 = assay: Antiproliferative activity against mouse MC-38 cells assessed as inhibition of cell growth incubated for 48 hrs by CCK-8 assay; type: functional, cell-based; settings: MC-38, 48 h
[4] = test system: Salmonella enterica subsp. enterica serovar Paratyphi B; assay: Antibacterial activity against Salmonella paratyphi B ATCC CMCC50094 assessed as bacterial growth inhibition incubated for 48 hrs by broth dilution susceptibility test; type: functional
[5] = test system: Lactobacillus acidophilus; assay: Antibacterial activity against Lactobacillus acidophilus ATCC CGMCC 1.577 assessed as bacterial growth inhibition incubated for 48 hrs by broth dilution susceptibility test; type: functional
[6] = Cytotoxicity against human L02 cells assessed as inhibition of cell growth incubated for 48 hrs by CCK-8 assay; type: toxicity, cell-based
Escherichia coli = assay: Antibacterial activity against Escherichia coli […] assessed as bacterial growth inhibition incubated for 48 hrs by broth dilution susceptibility test; type: functional
Akkermansia muciniphila = assay: Antibacterial activity against Akkermansia muciniphila ATCC BAA-835 assessed as bacterial growth inhibition incubated for 48 hrs by broth dilution susceptibility test; type: functional
HCT-116 = assay: Antiproliferative activity against human HCT-116 cells assessed as inhibition of cell growth incubated for 48 hrs by CCK-8 assay; type: functional, cell-based; settings: HCT-116, 48 h
Fusobacterium nucleatum [7] = assay: Antibacterial activity against Fusobacterium nucleatum ATCC 23726 assessed as bacterial growth inhibition at 8 ug/ml incubated for 72 hrs by turbidimeter analysis; type: functional, organism-based; settings: dose 8.0 µg/ml
Staphylococcus aureus = assay: Antibacterial activity against Staphylococcus aureus ATCC 6538 assessed as bacterial growth inhibition incubated for 48 hrs by broth dilution susceptibility test; type: functional
Enterococcus faecalis = assay: Antibacterial activity against Enterococcus faecalis ATCC 29212 assessed as bacterial growth inhibition incubated for 48 hrs by broth dilution susceptibility test; type: functional
Fusobacterium nucleatum [8] = assay: Antibacterial activity against Fusobacterium nucleatum ATCC 23726 assessed as bacterial growth inhibition incubated for 72 hrs by turbidimeter analysis; type: functional, organism-based
Fusobacterium nucleatum [9] = assay: Antibacterial activity against Fusobacterium nucleatum ATCC 23726 assessed as bacterial growth inhibition at 4 ug/ml incubated for 72 hrs by turbidimeter analysis; type: functional, organism-based; settings: dose 4.0 µg/ml
Fusobacterium nucleatum [10] = assay: Antibiofilm activity against Fusobacterium nucleatum ATCC 23726 assessed as inhibition of biofilm formation incubated for 48 hrs by crystal violet staining based assay; type: functional, organism-based; settings: dose 0.5-16 µg/ml

Q: For `O=C(Nc1ccon1)c1ccc([N+](=O)[O-])c(Br)c1`, which MIC50 (Fusobacterium nucleatum [1]) is on record?
A: Its MIC50 is greater than 64 µg/mL.

Q: For `COC(=O)OCc1ccc(NC(=O)c2ccc(C(F)(F)F)cc2[N+](=O)[O-])cc1`, which MIC50 (Fusobacterium nucleatum [1]) is on record?
A: Its MIC50 is greater than 64 µg/mL.

Q: With `O=C(OCc1ccc([N+](=O)[O-])o1)c1ccc(C(F)(F)F)cc1[N+](=O)[O-]` as the compound, how does the MIC50 (Shigella flexneri) read?
A: Its MIC50 is greater than 64 µg/mL.

Q: What about the IC50 at 48 h [2] of the same compound?
A: Its IC50 at 48 h is 40 µM.

Q: What about the MIC50 [3] of the same compound?
A: Its MIC50 is greater than 64 µg/mL.

Q: And the IC50 (MC-38)?
A: Its IC50 is 49 µM.

Q: What about the MIC50 [4] of the same compound?
A: The MIC50 was 64 µg/mL (≈ 178 µM).

Q: What about the MIC50 [5] of the same compound?
A: Its MIC50 is 64 µg/mL (≈ 178 µM).

Q: And the IC50 at 48 h [6]?
A: The IC50 at 48 h was 81 µM.

Q: What about the MIC50 (Escherichia coli) of the same compound?
A: The MIC50 was greater than 64 µg/mL.

Q: What about the MIC50 (Akkermansia muciniphila) of the same compound?
A: The MIC50 was greater than 64 µg/mL.

Q: And the IC50 (HCT-116)?
A: Its IC50 is 84 µM.

Q: What about the MIC50 (Fusobacterium nucleatum [1]) of the same compound?
A: Its MIC50 is 4 µg/mL (≈ 11.1 µM).

Q: What about the Activity (Fusobacterium nucleatum [7]) of the same compound?
A: The Activity was “Active”.

Q: What about the MIC50 (Staphylococcus aureus) of the same compound?
A: Its MIC50 is greater than 64 µg/mL.

Q: And the MIC50 (Enterococcus faecalis)?
A: The MIC50 was greater than 64 µg/mL.

Q: And the Activity (Fusobacterium nucleatum [8])?
A: Its Activity is “Dose-Dependent Effect”.

Q: Which MIC50 (Fusobacterium nucleatum [1]) does the source give for `Cn1c([N+](=O)[O-])cnc1COC(N)=O` [RONIDAZOLE] here?
A: The MIC50 was 2 µg/mL (≈ 9.99 µM).

Q: For `NC(=O)c1ccc(NC(=O)c2ccc(C(F)(F)F)cc2)cc1`, which MIC50 (Fusobacterium nucleatum [1]) is on record?
A: Its MIC50 is greater than 64 µg/mL.

Q: For `Cl.Cl.Cl.O[C@@H](COc1cccc2ncccc12)CN1CCN([C@@H]2c3ccccc3[C@@H]3[C@H](c4ccccc42)C3(F)F)CC1` [ZOSUQUIDAR TRIHYDROCHLORIDE], which MIC50 (Fusobacterium nucleatum [1]) is on record?
A: The MIC50 was 16 µg/mL.

Q: For `O=C(NCc1ccccc1C(F)(F)F)c1ccc(C(F)(F)F)cc1[N+](=O)[O-]`, which MIC50 (Fusobacterium nucleatum [1]) is on record?
A: The MIC50 was greater than 64 µg/mL.

Q: For `CC(C)(C)c1ccc(C(O)CCCN2CCC(C(O)(c3ccccc3)c3ccccc3)CC2)cc1` (stereo not given) [TERFENADINE], which MIC50 (Fusobacterium nucleatum [1]) is on record?
A: The MIC50 was 16 µg/mL (≈ 33.9 µM).

Q: Which MIC50 (Fusobacterium nucleatum [1]) does the source give for `Cc1cc(=O)oc2ccc(OC(=O)c3ccc([N+](=O)[O-])c(F)c3)cc12` here?
A: Its MIC50 is greater than 64 µg/mL.

Q: Which results are given for `O=[N+]([O-])c1ccc(COc2ccc([N+](=O)[O-])c(C(F)(F)F)c2)o1`?
A: MIC50 (Shigella flexneri): > 64 µg/mL; IC50 at 48 h [2]: 9.6 µM; MIC50 [3]: 32 µg/mL (≈ 96.3 µM); IC50 (MC-38): 38 µM; MIC50 [4]: 64 µg/mL (≈ 193 µM); Activity (Fusobacterium nucleatum [9]): Active; MIC50 [5]: > 64 µg/mL; IC50 at 48 h [6]: 21 µM; inhibition (Fusobacterium nucleatum [10]): Dose-Dependent Effect; MIC50 (Escherichia coli): 64 µg/mL (≈ 193 µM); MIC50 (Akkermansia muciniphila): > 64 µg/mL; IC50 (HCT-116): 52 µM; MIC50 (Fusobacterium nucleatum [1]): 4 µg/mL (≈ 12 µM); MIC50 (Staphylococcus aureus): 64 µg/mL (≈ 193 µM); MIC50 (Enterococcus faecalis): 64 µg/mL (≈ 193 µM); Activity (Fusobacterium nucleatum [8]): Dose-Dependent Effect

Q: For `OC1(c2ccc(Cl)c(C(F)(F)F)c2)CCN(CCCC(c2ccc(F)cc2)c2ccc(F)cc2)CC1` [PENFLURIDOL], which MIC50 (Fusobacterium nucleatum [1]) is on record?
A: Its MIC50 is 8 µg/mL (≈ 15.3 µM).

Q: For `CS(=O)(=O)c1ccc(C(=O)C2C(=O)CCCC2=O)c(Cl)c1` [SULCOTRIONE], which MIC50 (Fusobacterium nucleatum [1]) is on record?
A: Its MIC50 is greater than 64 µg/mL.

Q: With `O=C(Nc1ccon1)c1ccc([N+](=O)[O-])cc1I` as the compound, how does the MIC50 (Fusobacterium nucleatum [1]) read?
A: Its MIC50 is greater than 64 µg/mL.

Q: For `CSc1ccc(OCc2ncc([N+](=O)[O-])n2C)cc1` [FEXINIDAZOLE], which MIC50 (Fusobacterium nucleatum [1]) is on record?
A: The MIC50 was 8 µg/mL (≈ 28.6 µM).

Q: With `O=C(CCc1ccc([N+](=O)[O-])cc1)Nc1ccon1` as the compound, how does the MIC50 (Fusobacterium nucleatum [1]) read?
A: Its MIC50 is greater than 64 µg/mL.

Q: Which MIC50 (Fusobacterium nucleatum [1]) does the source give for `O=C1NCCN1CCN1CCC(c2cn(-c3ccc(F)cc3)c3ccc(Cl)cc23)CC1` [SERTINDOLE] here?
A: The MIC50 was 16 µg/mL (≈ 36.3 µM).
